Assay results: patent publication US10433556B2, “Treatment and/or prophylaxis of storage diseases of harvested material” (priority 2011, dated 2019)

Columns and labels:
birds and ducks = conditions: in vivo; cited from earlier work
[1] = system: silver scurf on potato tubers; assay: Field trial 2010/2011 Germany: Proradix in combination with Imazalil, affection by silver scurf after storage; format: in vivo, Helminthosporium solani; conditions: exclusively Imazalil at the laying and the storage; vs untreated potatoes; FIG. 5 third column
Protocol: For the treatment of the seed potato at or before the laying into the ground soil Proradix is used as a liquid mordant [Proradix WG (LF 4816-00); Sourcon […] GmbH & Co. KG, Tübingen, Germany], according to the information of the manufacturer in a concentration of 60 g/ha via the spraying method by using a ULV spraying device. Before the storage of the potatoes 20 g of Proradix WG is dissolved in a maximum of 2 l of water per barrel. The application onto the potatoes is also effected by means of a ULV spraying device. The laying of the potato and, if applicable, the treatment with Proradix and/or Imazalil is carried out in springtime and the harvest and storage and, if applicable, the treatment with Proradix and/or Imazalil is carried out in fall of the same year. In a field trial conducted in the years of 2010 and 2011 in Germany according to the EPPO guidelines it was examined in detail, whether Proradix can also be effectively used in combination with the chemical of Imazalil. For this purpose a part of the potatoes remain untreated, a part was treated with the chemical of Imazalil at the laying, and a part was treated at the laying and also before the storage with the chemical of Imazalil, and yet another part was treated at the laying with Imazalil and before the storage with Proradix.

Helminthosporium solani [2] = assay: Field trial 2010/2011 Netherlands: production of spores of the silver scurf pathogen on the potato tuber; format: in vivo; conditions: treatment of the potato before the storage; FIG. 2
Protocol: (§1) For the treatment of the seed potato at or before the laying into the ground soil Proradix is used as a liquid mordant [Proradix WG (LF 4816-00); Sourcon […] GmbH & Co. KG, Tübingen, Germany], according to the information of the manufacturer in a concentration of 60 g/ha via the spraying method by using a ULV spraying device. Before the storage of the potatoes 20 g of Proradix WG is dissolved in a maximum of 2 l of water per barrel. The application onto the potatoes is also effected by means of a ULV spraying device. The laying of the potato and, if applicable, the treatment with Proradix and/or Imazalil is carried out in springtime and the harvest and storage and, if applicable, the treatment with Proradix and/or Imazalil is carried out in fall of the same year. In a further field trial conducted in the years of 2010/2011 in the Netherlands according to the EPPO guidelines the influence of Proradix in comparison to the chemical standard of Imazalil on the production of spores of the fungal pathogen of Helminthosporium solani, the initiator of the silver scurf, and the rate of germination of the spores on the potato tuber was examined.

Helminthosporium solani [3] = assay: Field trial 2010/2011 Netherlands: rate of germination of the spores on the potato tuber; format: in vivo; conditions: use of Imazalil; FIG. 3 fourth column
Protocol: as §1

fish = conditions: in vivo; cited from earlier work

Compound: C=CCOC(Cn1ccnc1)c1ccc(Cl)cc1Cl (centres unmarked) [Imazalil]
- effect on birds and ducks (birds and ducks): causes damages
- affection by silver scurf after the storage [1]: significantly diminished reduction
- formation of spores (Helminthosporium solani [2]): comparable
- share of spores able to germinate (Helminthosporium solani [3]): half
- toxicity for fish (fish): toxic
